# Columns and labels:
# MAGL [1] = target: T1, MAGL (Homo sapiens, UniProt Q99685); assay: In vitro competitive activity-based protein profiling, MAGL, human; conditions: for inhibition at 1 µM: read-out: MAGL % inh. 1 μM (human)
# T1 sequence (Q99685 1-303): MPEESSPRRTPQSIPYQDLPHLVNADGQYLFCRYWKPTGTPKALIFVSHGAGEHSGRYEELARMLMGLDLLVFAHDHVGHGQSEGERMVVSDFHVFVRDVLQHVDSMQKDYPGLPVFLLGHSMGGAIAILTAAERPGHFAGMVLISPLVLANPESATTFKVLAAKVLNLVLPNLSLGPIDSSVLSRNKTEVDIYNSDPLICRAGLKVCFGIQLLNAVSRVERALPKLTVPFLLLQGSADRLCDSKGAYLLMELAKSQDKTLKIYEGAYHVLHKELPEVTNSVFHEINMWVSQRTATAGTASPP
# FAAH [2] = target: T2, FAAH (Homo sapiens, UniProt O00519); assay: In vitro competitive activity-based protein profiling, FAAH, human; conditions: for inhibition at 1 µM: read-out: FAAH % inh. 1 μM (human)
# T2 sequence (O00519 1-579): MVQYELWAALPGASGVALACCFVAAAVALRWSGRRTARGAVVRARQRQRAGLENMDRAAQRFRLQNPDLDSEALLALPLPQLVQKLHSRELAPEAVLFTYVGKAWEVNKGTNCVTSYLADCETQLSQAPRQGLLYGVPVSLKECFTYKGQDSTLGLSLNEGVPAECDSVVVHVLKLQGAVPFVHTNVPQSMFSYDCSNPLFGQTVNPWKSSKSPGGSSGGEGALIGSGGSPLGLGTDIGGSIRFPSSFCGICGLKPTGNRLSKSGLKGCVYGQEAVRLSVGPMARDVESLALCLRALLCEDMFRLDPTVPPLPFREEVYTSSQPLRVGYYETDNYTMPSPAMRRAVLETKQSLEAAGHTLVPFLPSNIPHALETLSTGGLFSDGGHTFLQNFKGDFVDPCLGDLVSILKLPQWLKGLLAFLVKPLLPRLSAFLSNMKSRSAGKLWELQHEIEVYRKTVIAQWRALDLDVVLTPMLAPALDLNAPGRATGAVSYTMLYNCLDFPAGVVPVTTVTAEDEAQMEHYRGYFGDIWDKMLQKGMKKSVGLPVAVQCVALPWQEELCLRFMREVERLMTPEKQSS
# FAAH [3] = target: T3, FAAH (Mus musculus, UniProt O08914); assay: In vitro competitive activity-based protein profiling, FAAH, mouse; conditions: read-out: FAAH % inh. 1 μM (mouse)
# T3 sequence (O08914 1-579): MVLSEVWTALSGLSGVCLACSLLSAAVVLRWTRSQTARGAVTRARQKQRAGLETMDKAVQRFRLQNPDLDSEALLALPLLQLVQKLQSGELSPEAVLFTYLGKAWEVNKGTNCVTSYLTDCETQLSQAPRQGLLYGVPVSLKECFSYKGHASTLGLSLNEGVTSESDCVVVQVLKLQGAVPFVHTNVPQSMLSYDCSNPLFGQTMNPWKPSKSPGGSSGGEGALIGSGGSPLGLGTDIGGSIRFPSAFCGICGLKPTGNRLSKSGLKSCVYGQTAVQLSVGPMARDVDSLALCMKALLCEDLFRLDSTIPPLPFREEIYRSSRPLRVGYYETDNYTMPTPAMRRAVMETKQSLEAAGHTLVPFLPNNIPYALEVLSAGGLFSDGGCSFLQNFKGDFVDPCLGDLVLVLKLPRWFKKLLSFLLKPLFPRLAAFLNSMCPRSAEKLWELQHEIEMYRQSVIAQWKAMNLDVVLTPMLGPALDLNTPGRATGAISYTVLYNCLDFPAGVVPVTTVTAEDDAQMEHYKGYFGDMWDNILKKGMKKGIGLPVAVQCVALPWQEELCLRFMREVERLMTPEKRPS
# Protocol: Biological Evaluation In Vitro Competitive Activity-Based Protein Profiling.
# Proteomes (mouse brain membrane fraction for mouse assays; human prefrontal cortex membrane fractions for human assays) (50 mL, 1.0 mg/mL total protein concentration) were preincubated with varying concentrations of inhibitors at 37° C. After 30 min, FP-Rh (1.0 mL, 50 mM in DMSO) was added and the mixture was incubated for another 30 min at 37° C. Reactions were quenched with SDS loading buffer (15 μL—4λ) and run on SDS-PAGE.
# MAGL [4] = target: T4, MAGL (Mus musculus, UniProt O35678); assay: In vitro competitive activity-based protein profiling, MAGL, mouse; conditions: read-out: MAGL % inh. 1 μM (mouse)
# T4 sequence (O35678 1-303): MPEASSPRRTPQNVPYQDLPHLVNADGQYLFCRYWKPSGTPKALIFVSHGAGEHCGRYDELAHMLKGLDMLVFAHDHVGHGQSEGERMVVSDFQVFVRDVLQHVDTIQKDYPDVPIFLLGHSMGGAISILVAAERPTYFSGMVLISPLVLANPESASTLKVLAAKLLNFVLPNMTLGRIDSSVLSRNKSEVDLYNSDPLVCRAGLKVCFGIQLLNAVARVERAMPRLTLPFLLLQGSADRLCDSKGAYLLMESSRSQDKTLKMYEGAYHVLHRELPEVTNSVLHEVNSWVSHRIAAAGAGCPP
SMILES,inhibition at 1 µM (MAGL [1]),inhibition at 1 µM (FAAH [3]),inhibition at 1 µM (MAGL [4]),also measured
"O=C(O)c1ccn(C(=O)N2CCC3(CCCN3Cc3ccc(Cl)cc3N3CCCC3)CC2)n1 [Example 180, 1-(1-(4-chloro-2-(pyrrolidin-1-yl)benzyl)-1,8-diazaspiro[4.5]decane-8-carbonyl)-1H-pyrazole-3-carboxylic acid]",> 75%,–,–,inhibition at 1 µM (FAAH [2]): 0 to 25%
"NC(=O)c1ccn(C(=O)N2CCN(Cc3cccc(-c4cncnc4)c3)CC2)n1 [Example 179, 1-(4-(3-(pyrimidin-5-yl)benzyl)piperazine-1-carbonyl)-1H-pyrazole-3-carboxamide]",> 75%,–,–,inhibition at 1 µM (FAAH [2]): 50 to 75%
"O=C(O)c1ccn(C(=O)N2CC3CN(Cc4ccc(Cl)cc4)CC3C2)n1 (stereo not shown) [Example 183, 1-(5-(4-chlorobenzyl)octa-hydropyrrolo[3,4-c]pyrrole-2-carbonyl)-1H-pyrazole-3-carboxylic acid]",–,25 to 50%,25 to 50%,–
"O=C(O)c1ccn(C(=O)N2CCC(Oc3cccc(Cl)c3N3CCCC3)CC2)n1 [Example 13, 1-(4-(3-Chloro-2-(pyrrolidin-1-yl)phenoxy)piperidine-1-carbonyl)-1H-pyrazole-3-carboxylic Acid]",–,0 to 25%,> 75%,–
"O=C(O)c1ccn(C(=O)N2CCN(Cc3cccc(Oc4ccnnc4)c3)CC2)n1 [Example 177, 1-(4-(3-(pyridazin-4-yloxy)benzyl)pipera-zine-1-carbonyl)-1H-pyrazole-3-carboxylic acid]",25 to 50%,–,–,inhibition at 1 µM (FAAH [2]): 0 to 25%
"NC(=O)c1ccn(C(=O)N2CCC3(CCN(Cc4cc(Cl)cc(C(F)(F)F)c4)C3)CC2)n1 [Example 196, 1-(2-(3-chloro-5-(trifluoromethyl)benzyl)-2,8-diazaspiro[4.5]decane-8-carbonyl)-1H-pyrazole-3-carboxamide]",> 75%,–,–,inhibition at 1 µM (FAAH [2]): > 75%
"CN(Cc1ccccc1Cl)[C@H]1C[C@@H]2CN(C(=O)n3ccc(C(N)=O)n3)C[C@@H]2C1 [Example 200, 1-(trans-5-((2-chlorobenzyl) (methyl)amino)octa-hydrocyclopenta[c]pyrrole-2-carbonyl)-1H-pyrazole-3-carboxamide]",–,> 75%,> 75%,–
"O=C(O)c1ccn(C(=O)N2CCC3(CCN(Cc4ccc(-c5ccccc5)cc4C(F)(F)F)C3)CC2)n1 [Example 170, 1-(2-((3-(trifluoromethyl)-[1,1′-biphenyl]-4-yl)methyl)-2,8-diazaspiro[4.5]decane-8-carbonyl)-1H-pyrazole-3-carboxylic acid]",> 75%,–,–,IC50 (FAAH [2]): 100 to 1000 nM; inhibition at 1 µM (FAAH [2]): > 75%
"O=C(O)c1ccn(C(=O)N2CCN(Cc3cccc(Oc4ccccc4)c3)CC2)n1 [Example 2, 1-(4-(3-phenoxybenzyl)piperazine-1-carbonyl)-1H-pyrazole-3-carboxylic Acid]",–,25 to 50%,> 75%,–
"CN(Cc1ccccc1Cl)[C@H]1C[C@@H]2CN(C(=O)n3ccc(C(=O)O)n3)C[C@@H]2C1 [Example 184, 1-(trans-5-((2-chlorobenzyl) (methyl)amino)octa-hydrocyclopenta[c]pyrrole-2-carbonyl)-1H-pyrazole-3-carboxylic]",–,25 to 50%,0 to 25%,–
"NC(=O)c1ccn(C(=O)N2CCC3(CCN(Cc4cc(F)cc(Cl)c4)C3)CC2)n1 [Example 178, 1-(2-(3-chloro-5-fluorobenzyl)-2,8-diazaspiro[4.5]decane-8-carbonyl)-1H-pyrazole-3-carboxamide]",> 75%,–,–,inhibition at 1 µM (FAAH [2]): > 75%

# More lines, main results first:
inhibition at 1 µM (MAGL [1]),inhibition at 1 µM (FAAH [3]),inhibition at 1 µM (MAGL [4]),SMILES,also measured
–,> 75%,> 75%,"NC(=O)c1ccn(C(=O)N2CC3CN(Cc4cc(Cl)ccc4Cl)CC3C2)n1 (stereo not shown) [Example 202, 1-(5-(2,5-dichlorobenzyl)octa-hydropyrrolo[3,4-c]pyrrole-2-carbonyl)-1H-pyrazole-3-carboxamide]",–
–,> 75%,> 75%,"NC(=O)c1ccn(C(=O)N2CC3CN(Cc4cc(Cl)cc(C(F)(F)F)c4)CC3C2)n1 (stereo not shown) [Example 201, 1-(5-(3-chloro-5-(trifluoromethyl)benzyl)octahydro-pyrrolo[3,4-c]pyrrole-2-carbonyl)-1H-pyrazole-3-carboxamide]",–
–,> 75%,> 75%,"NC(=O)c1ccn(C(=O)N2CC3CN(Cc4cccc(C(F)(F)F)c4)CC3C2)n1 (stereo not shown) [Example 208, 1-(5-(3-(trifluoromethyl)benzyl)octahydro-pyrrolo[3,4-c]pyrrole-2-carbonyl)-1H-pyrazole-3-carboxamide]",–
–,> 75%,> 75%,"CN(Cc1ccc(C(F)(F)F)cc1)[C@@H]1C[C@@H]2CN(C(=O)n3ccc(C(N)=O)n3)C[C@@H]2C1 [Example 205, 1-(cis-5-(methyl(4-(trifluoromethyl)benzyl)amino)octa-hydrocyclopenta[c]pyrrole-2-carbonyl)-1H-pyrazole-3-carboxamide]",–
–,> 75%,> 75%,CN(Cc1ccccc1Cl)[C@@H]1C[C@@H]2CN(C(=O)n3ccc(C(N)=O)n3)C[C@@H]2C1 [Example 206],–
–,> 75%,> 75%,"CN(Cc1ccccc1C(F)(F)F)[C@@H]1C[C@@H]2CN(C(=O)n3ccc(C(N)=O)n3)C[C@@H]2C1 [Example 204, 1-(cis-5-(methyl(2-(trifluoromethyl)benzyl)amino)octa-hydrocyclopenta[c]pyrrole-2-carbonyl)-1H-pyrazole-3-carboxamide]",–
–,–,0 to 25%,"O=C(O)c1ccn(C(=O)N2CCC3(CCN(Cc4cccc(-c5cncnc5)c4)C3)CC2)n1 [Example 302, 1-(2-(3-(pyrimidin-5-yl)benzyl)-2,8-diazaspiro[4.5]decane-8-carbonyl)-1H-pyrazole-3-carboxylic acid]",inhibition at 10 µM (MAGL [1]; read-out: MAGL % inh. (human) at 10 uM): > 75%
> 75%,–,> 75%,"O=C(O)c1ccn(C(=O)N2C[C@H]3C[C@H](OCc4cccc(-c5ccccc5)c4)C[C@H]3C2)n1 [Example 278, 1-(trans-5-([1,1′-biphenyl]-3-ylmethoxy)octa-hydrocyclopenta[c]pyrrole-2-carbonyl)-1H-pyrazole-3-carboxylic acid]",–
25 to 50%,–,0 to 25%,"O=C(O)c1ccn(C(=O)N2CCC3(CCN(Cc4ccc(Cl)c(N5CCCC5)c4)C3)CC2)n1 [Example 343, 1-(2-(4-chloro-3-(pyrrolidin-1-yl)benzyl)-2,8-diazaspiro[4.5]decane-8-carbonyl)-1H-pyrazole-3-carboxylic acid]",–
> 75%,–,> 75%,"O=C(O)c1nn(C(=O)N2C[C@H]3C[C@H](OCc4cccc(C(F)(F)F)c4)C[C@H]3C2)cc1Cl [Example 314, 4-chloro-1-(trans-5-((3-(trifluoromethyl)benzyl)oxy)octa-hydrocyclopenta[c]pyrrole-2-carbonyl)-1H-pyrazole-3-carboxylic acid]",–

# Reference: US10266497B2 (ABIDE THERAPEUTICS, INC., priority 2017, dated 2019)
